“And” between values parts separate entries of the source, which are not always exact repeats. Identical values can stand only once.
How the values were obtained:
[1] = molecular target: T1, HRH1 (Homo sapiens, UniProt P35367); test: PRESTO-Tango GPCR screen and dose-response; format: cell-based; settings: for GPCR activation (heatmap value): HRH1, 100 µM; for HRH1 dose-response raw reporter signal (Fig. 5b source data): replicate wells
T1 construct: expressed in transfected cells; host or cells: HTLA cells (HEK293 line stably expressing β-arrestin-TEV and tTA-Luciferase)
Method in brief: (§1)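 Each receptor was expressed from a Tango plasmid in HTLA cells, which stably carry β-arrestin-TEV and a tTA-driven luciferase reporter. Single-point screening used 100 μM final compound for 20 h, and the signal was normalised to PBS control. Concentration-response testing spanned 10^−4 to 10^−15 M.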

[2] = molecular target: T2, HRH3 (Homo sapiens, UniProt Q9Y5N1); test: PRESTO-Tango GPCR screen and dose-response; format: cell-based; settings: for GPCR activation (heatmap value): HRH3, 100 µM; for HRH3 dose-response raw reporter signal (Fig. 5b source data): replicate wells
T2 construct: expressed in transfected cells; host or cells: HTLA cells (HEK293 line stably expressing β-arrestin-TEV and tTA-Luciferase)
Method in brief: as §1

[3] = molecular target: T3, HRH2 (Homo sapiens, UniProt P25021); test: PRESTO-Tango GPCR screen and dose-response; format: cell-based; settings: for GPCR activation (heatmap value): HRH2, 100 µM; for HRH2 dose-response raw reporter signal (Fig. 5b source data): replicate wells
T3 construct: expressed in transfected cells; host or cells: HTLA cells (HEK293 line stably expressing β-arrestin-TEV and tTA-Luciferase)
Method in brief: as §1

[4] = test system: ∆pyr K. oxytoca; test: RNA-seq of compound-supplemented ∆pyr K. oxytoca; format: cell-based, Klebsiella oxytoca ATCC 8724; settings: 10 µM
Procedure: A ∆pyr K. oxytoca glycerol stock was streaked onto an LB-Agar plate supplemented with spectinomycin (50 µg/mL) and incubated aerobically at 30°C for 24 h in a stationary incubator. Single colonies were grown for 24 h aerobically in 5 mL of M9 minimal medium supplemented with 5 g/L casamino acids and 0.4% D-galactose at 30 °C and 250 rpm. Each ∆pyr K. oxytoca overnight culture was diluted 1:1000 into fresh medium (5 mL) and incubated aerobically at 30 °C and 250 rpm to mid-exponential growth (OD600 = 0.8). These conditions abrogated both detectable pyrazine and pyrazinone production. At this point, 10 µM of compound in DMSO, were added to the cultures; an equal volume of DMSO was added to cultures without compound as a solvent vehicle control. The cultures were incubated under aerobic conditions with the compounds for one hour at 30 °C and at 250 rpm. After incubation, the cultures were centrifuged, the supernatants were decanted, and the cell pellets were quickly resuspended in 5 mL of Bacterial RNAProtect (Qiagen). The samples were centrifuged again, and the pellets were frozen on dry ice and stored at −80 °C until RNA extraction. The processed cell pellets were thawed on ice and resuspended in 200 µL of lysis buffer (10 mM Tris, 1 mM EDTA, 5 mg/mL lysozyme, 12.5 µg/mL proteinase K [pH 8.0]) and incubated at room temperature for 10 min. The RNA was extracted via the Qiagen RNeasy Mini kit, treated with TURBO DNase in a total volume of 100 µL at room temperature for 30 min, and extracted again using an RNeasy Mini kit. RNA-seq analysis was conducted by the Yale Center for Genome Analysis. Sequences were aligned to the K. oxytoca ATCC 8724 genome (NC_016612.1). Differential expression analysis was performed through DESeq2 and pathway enrichment analysis was performed through the Funage-Pro web-based platform.

T1 sequence (P35367 whole entry): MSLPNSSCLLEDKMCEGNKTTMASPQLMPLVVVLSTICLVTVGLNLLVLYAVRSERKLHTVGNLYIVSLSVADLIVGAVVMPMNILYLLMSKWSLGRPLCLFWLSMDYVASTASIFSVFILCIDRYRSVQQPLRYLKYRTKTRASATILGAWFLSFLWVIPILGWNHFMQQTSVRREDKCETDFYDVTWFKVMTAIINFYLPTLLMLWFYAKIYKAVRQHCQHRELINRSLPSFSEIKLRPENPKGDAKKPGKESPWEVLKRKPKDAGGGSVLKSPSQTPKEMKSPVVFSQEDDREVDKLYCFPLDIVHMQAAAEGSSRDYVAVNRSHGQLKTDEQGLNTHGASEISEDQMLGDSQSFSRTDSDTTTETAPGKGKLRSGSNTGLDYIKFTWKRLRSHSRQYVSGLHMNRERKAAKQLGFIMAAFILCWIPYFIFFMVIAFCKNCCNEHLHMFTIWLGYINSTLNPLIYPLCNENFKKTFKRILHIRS
T3 sequence (P25021 whole entry): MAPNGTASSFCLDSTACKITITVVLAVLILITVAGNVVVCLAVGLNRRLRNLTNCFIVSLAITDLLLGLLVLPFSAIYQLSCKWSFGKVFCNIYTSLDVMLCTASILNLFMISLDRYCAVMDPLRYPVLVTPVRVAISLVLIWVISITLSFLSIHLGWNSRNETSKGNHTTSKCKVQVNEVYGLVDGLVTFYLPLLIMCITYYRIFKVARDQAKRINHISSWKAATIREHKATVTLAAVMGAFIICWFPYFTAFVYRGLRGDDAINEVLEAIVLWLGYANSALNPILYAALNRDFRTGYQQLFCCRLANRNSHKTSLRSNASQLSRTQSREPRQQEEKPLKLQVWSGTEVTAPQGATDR
T2 sequence (Q9Y5N1 whole entry): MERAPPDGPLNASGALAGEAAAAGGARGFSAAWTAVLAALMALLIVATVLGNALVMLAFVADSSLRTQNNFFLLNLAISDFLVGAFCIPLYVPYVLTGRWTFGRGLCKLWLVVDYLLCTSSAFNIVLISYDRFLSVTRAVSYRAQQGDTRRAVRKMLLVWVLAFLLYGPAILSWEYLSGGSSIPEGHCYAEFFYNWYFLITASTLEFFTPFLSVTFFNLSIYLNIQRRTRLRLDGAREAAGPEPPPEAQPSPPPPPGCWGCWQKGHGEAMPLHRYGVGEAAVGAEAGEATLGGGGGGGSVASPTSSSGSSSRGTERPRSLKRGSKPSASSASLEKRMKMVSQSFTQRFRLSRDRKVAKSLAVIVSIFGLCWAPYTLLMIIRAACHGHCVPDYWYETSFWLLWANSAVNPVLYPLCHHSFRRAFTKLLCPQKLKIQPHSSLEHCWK

CC(C)Cc1ncc(CCCCNC(=N)N)[nH]c1=O [3-Homo]
GPCR activation (heatmap value) [1]: 0.1843 | HRH1 dose-response raw reporter signal (Fig. 5b source data) ([1]; Log(10)Conc (M) -4): 49786 and 49898 | HRH1 dose-response raw reporter signal (Fig. 5b source data) ([1]; Log(10)Conc (M) -5): 48910 and 46012 | HRH1 dose-response raw reporter signal (Fig. 5b source data) ([1]; Log(10)Conc (M) -6): 48701 and 46228 | HRH1 dose-response raw reporter signal (Fig. 5b source data) ([1]; Log(10)Conc (M) -7): 46626 and 44830 | HRH1 dose-response raw reporter signal (Fig. 5b source data) ([1]; Log(10)Conc (M) -8): 47613 and 46402 | HRH1 dose-response raw reporter signal (Fig. 5b source data) ([1]; Log(10)Conc (M) -9): 46045 and 44597 | HRH1 dose-response raw reporter signal (Fig. 5b source data) ([1]; Log(10)Conc (M) -10): 46658 and 45508 | HRH1 dose-response raw reporter signal (Fig. 5b source data) ([1]; Log(10)Conc (M) -11): 45821 and 45927 | HRH1 dose-response raw reporter signal (Fig. 5b source data) ([1]; Log(10)Conc (M) -12): 46189 and 46705 | HRH1 dose-response raw reporter signal (Fig. 5b source data) ([1]; Log(10)Conc (M) -13): 47852 and 47304 | HRH1 dose-response raw reporter signal (Fig. 5b source data) ([1]; Log(10)Conc (M) -14): 47480 and 47139 | HRH1 dose-response raw reporter signal (Fig. 5b source data) ([1]; Log(10)Conc (M) -15): 43822 and 41222 | GPCR activation (heatmap value) [2]: -0.5013 | HRH3 dose-response raw reporter signal (Fig. 5b source data) ([2]; Log(10)Conc (M) -4): 262 and 192 and 404 | HRH3 dose-response raw reporter signal (Fig. 5b source data) ([2]; Log(10)Conc (M) -5): 245 and 283 and 383 | HRH3 dose-response raw reporter signal (Fig. 5b source data) ([2]; Log(10)Conc (M) -6): 192 and 292 and 463 | HRH3 dose-response raw reporter signal (Fig. 5b source data) ([2]; Log(10)Conc (M) -7): 286 and 312 and 310 | HRH3 dose-response raw reporter signal (Fig. 5b source data) ([2]; Log(10)Conc (M) -8): 174 and 312 and 371 | HRH3 dose-response raw reporter signal (Fig. 5b source data) ([2]; Log(10)Conc (M) -9): 227 and 248 and 307 | HRH3 dose-response raw reporter signal (Fig. 5b source data) ([2]; Log(10)Conc (M) -10): 124 and 254 and 251 | HRH3 dose-response raw reporter signal (Fig. 5b source data) ([2]; Log(10)Conc (M) -11): 177 and 189 and 218 | HRH3 dose-response raw reporter signal (Fig. 5b source data) ([2]; Log(10)Conc (M) -12): 112 and 153 and 198 | HRH3 dose-response raw reporter signal (Fig. 5b source data) ([2]; Log(10)Conc (M) -13): 130 and 206 and 248 | HRH3 dose-response raw reporter signal (Fig. 5b source data) ([2]; Log(10)Conc (M) -14): 97 and 162 and 233 | HRH3 dose-response raw reporter signal (Fig. 5b source data) ([2]; Log(10)Conc (M) -15): 150 and 124 (2×) | GPCR activation (heatmap value) [3]: 0.6697 | HRH2 dose-response raw reporter signal (Fig. 5b source data) ([3]; Log(10)Conc (M) -4): 77 and 94 and 47 | HRH2 dose-response raw reporter signal (Fig. 5b source data) ([3]; Log(10)Conc (M) -5): 50 and 38 and 83 | HRH2 dose-response raw reporter signal (Fig. 5b source data) ([3]; Log(10)Conc (M) -6): 68 and 53 and 83 | HRH2 dose-response raw reporter signal (Fig. 5b source data) ([3]; Log(10)Conc (M) -7): 59 and 65 and 91 | HRH2 dose-response raw reporter signal (Fig. 5b source data) ([3]; Log(10)Conc (M) -8): 56 and 50 and 59 | HRH2 dose-response raw reporter signal (Fig. 5b source data) ([3]; Log(10)Conc (M) -9): 44 (2×) and 59 | HRH2 dose-response raw reporter signal (Fig. 5b source data) ([3]; Log(10)Conc (M) -10): 53 and 62 (2×) | HRH2 dose-response raw reporter signal (Fig. 5b source data) ([3]; Log(10)Conc (M) -11): 29 and 53 and 74 | HRH2 dose-response raw reporter signal (Fig. 5b source data) ([3]; Log(10)Conc (M) -12): 50 and 65 and 53 | HRH2 dose-response raw reporter signal (Fig. 5b source data) ([3]; Log(10)Conc (M) -13): 53 and 27 and 91 | HRH2 dose-response raw reporter signal (Fig. 5b source data) ([3]; Log(10)Conc (M) -14): 41 and 77 and 68 | HRH2 dose-response raw reporter signal (Fig. 5b source data) ([3]; Log(10)Conc (M) -15): 47 and 29 and 100

CC(C)Cc1ncc(CCCNC(=N)N)[nH]c1=O [compound 3]
GPCR activation (heatmap value) [1]: 0.7784 | HRH1 dose-response raw reporter signal (Fig. 5b source data) ([1]; Log(10)Conc (M) -4): 68060 and 70767 | HRH1 dose-response raw reporter signal (Fig. 5b source data) ([1]; Log(10)Conc (M) -5): 51882 and 55219 | HRH1 dose-response raw reporter signal (Fig. 5b source data) ([1]; Log(10)Conc (M) -6): 48232 and 47554 | HRH1 dose-response raw reporter signal (Fig. 5b source data) ([1]; Log(10)Conc (M) -7): 45272 and 47466 | HRH1 dose-response raw reporter signal (Fig. 5b source data) ([1]; Log(10)Conc (M) -8): 44320 and 47843 | HRH1 dose-response raw reporter signal (Fig. 5b source data) ([1]; Log(10)Conc (M) -9): 43919 and 48335 | HRH1 dose-response raw reporter signal (Fig. 5b source data) ([1]; Log(10)Conc (M) -10): 42578 and 45208 | HRH1 dose-response raw reporter signal (Fig. 5b source data) ([1]; Log(10)Conc (M) -11): 43999 and 46555 | HRH1 dose-response raw reporter signal (Fig. 5b source data) ([1]; Log(10)Conc (M) -12): 42215 and 46142 | HRH1 dose-response raw reporter signal (Fig. 5b source data) ([1]; Log(10)Conc (M) -13): 45172 and 46997 | HRH1 dose-response raw reporter signal (Fig. 5b source data) ([1]; Log(10)Conc (M) -14): 41526 and 48557 | HRH1 dose-response raw reporter signal (Fig. 5b source data) ([1]; Log(10)Conc (M) -15): 37080 and 42401 | GPCR activation (heatmap value) [2]: -0.154 | HRH3 dose-response raw reporter signal (Fig. 5b source data) ([2]; Log(10)Conc (M) -4): 248 and 233 and 159 | HRH3 dose-response raw reporter signal (Fig. 5b source data) ([2]; Log(10)Conc (M) -5): 121 and 136 and 127 | HRH3 dose-response raw reporter signal (Fig. 5b source data) ([2]; Log(10)Conc (M) -6): 224 and 147 and 106 | HRH3 dose-response raw reporter signal (Fig. 5b source data) ([2]; Log(10)Conc (M) -7): 127 and 100 and 124 | HRH3 dose-response raw reporter signal (Fig. 5b source data) ([2]; Log(10)Conc (M) -8): 165 and 200 and 159 | HRH3 dose-response raw reporter signal (Fig. 5b source data) ([2]; Log(10)Conc (M) -9): 144 and 133 and 142 | HRH3 dose-response raw reporter signal (Fig. 5b source data) ([2]; Log(10)Conc (M) -10): 130 and 100 and 103 | HRH3 dose-response raw reporter signal (Fig. 5b source data) ([2]; Log(10)Conc (M) -11): 156 and 177 and 165 | HRH3 dose-response raw reporter signal (Fig. 5b source data) ([2]; Log(10)Conc (M) -12): 103 and 171 and 100 | HRH3 dose-response raw reporter signal (Fig. 5b source data) ([2]; Log(10)Conc (M) -13): 124 and 189 and 112 | HRH3 dose-response raw reporter signal (Fig. 5b source data) ([2]; Log(10)Conc (M) -14): 115 and 200 and 124 | HRH3 dose-response raw reporter signal (Fig. 5b source data) ([2]; Log(10)Conc (M) -15): 106 and 271 and 127 | GPCR activation (heatmap value) [3]: -0.4047 | HRH2 dose-response raw reporter signal (Fig. 5b source data) ([3]; Log(10)Conc (M) -4): 18 and 44 and 35 | HRH2 dose-response raw reporter signal (Fig. 5b source data) ([3]; Log(10)Conc (M) -5): 83 and 74 and 44 | HRH2 dose-response raw reporter signal (Fig. 5b source data) ([3]; Log(10)Conc (M) -6): 38 (2×) and 44 | HRH2 dose-response raw reporter signal (Fig. 5b source data) ([3]; Log(10)Conc (M) -7): 91 and 59 and 47 | HRH2 dose-response raw reporter signal (Fig. 5b source data) ([3]; Log(10)Conc (M) -8): 50 (2×) and 41 | HRH2 dose-response raw reporter signal (Fig. 5b source data) ([3]; Log(10)Conc (M) -9): 44 and 41 and 71 | HRH2 dose-response raw reporter signal (Fig. 5b source data) ([3]; Log(10)Conc (M) -10): 53 and 47 and 59 | HRH2 dose-response raw reporter signal (Fig. 5b source data) ([3]; Log(10)Conc (M) -11): 56 (2×) and 44 | HRH2 dose-response raw reporter signal (Fig. 5b source data) ([3]; Log(10)Conc (M) -12): 41 (2×) and 27 | HRH2 dose-response raw reporter signal (Fig. 5b source data) ([3]; Log(10)Conc (M) -13): 29 and 47 and 56 | HRH2 dose-response raw reporter signal (Fig. 5b source data) ([3]; Log(10)Conc (M) -14): 106 and 71 and 50 | HRH2 dose-response raw reporter signal (Fig. 5b source data) ([3]; Log(10)Conc (M) -15): 100 and 35 and 29 | number of differentially regulated genes ([4]; one hour, vs DMSO, Padj < 0.05, abs(log2FC) > 1): 561 genes | effect on enterobactin BGC transcription ([4]; vs DMSO control, RNA-seq): significantly enhanced transcription of the enterobactin BGC | KEGG pathway enrichment neglogP: ABC Transporters, upregulated ([4]; Funage-Pro, 3 upreg): 5.638 | KEGG pathway enrichment neglogP: Biosynthesis of siderophore group nonribosomal peptides, upregulated ([4]; Funage-Pro, 3 upreg): 9.097 | effect on yersiniabactin BGC transcription ([4]; RNA-seq, pyrazinone 3 compared with pyrazine 7): prominently upregulated the yersiniabactin BGC
